Tests used:
Aqueous solubility = conditions: aqueous solubility
[1] = Microsomal metabolic stability, rat liver microsomes (RLM); conditions: rat liver microsomes

Compound | Solub. (Aqueous solubility) | t1/2 (min, RLM) [1] | PAMPA | Solub. (μg/ml) (Aqueous solubility)
CCCn1c(=O)c2ccccc2n2c(=S)n(CN(CC)CC(C)C)nc12 [compound 38] | 8.7 µg/mL |  |  | 
Cc1nnc2n(CCc3ccccc3)c(=O)c3cc(F)ccc3n12 [compound 17] | 11.0 µg/mL | 10.7 min |  | 
CC(C)n1c(=O)c2ccccc2n2c(=S)[nH]nc12 [compound 26] | 19.5 µg/mL |  |  | 
O=C(Cc1ccc(O)cc1)NCCCn1c(=O)c2cc(F)ccc2n2c(=S)[nH]nc12 [compound 127, N-(3-(7-fluoro-5-oxo-1-thioxo-1,2-dihydro-[1,2,4]triazolo[4,3-a]quinazolin-4(5H)-yl)propyl)-2-(4-hydroxyphenyl)acetamide] | 31.0 µg/mL | >30 min |  | 
CC(C)(C)OC(=O)NCCCCCC(=O)NCCCn1c(=O)c2cc(F)ccc2n2c(=S)[nH]nc12 [Cmpd 101] |  |  | 405 ×10⁻⁶ cm/s | 
CCCn1c(=O)c2ccccc2n2c(=S)n(CN(C)C3CC3)nc12 [compound 35] |  |  |  | Insol.
O=C(NCCCn1c(=O)c2cc(F)ccc2n2c(=S)[nH]nc12)c1ccc(Cn2ccnc2)cc1 [compound 119, 4-((1H-imidazol-1-yl)methyl)-N-(3-(7-fluoro-5-oxo-1-thioxo-1,2-dihydro-[1,2,4]triazolo[4,3-a]quinazolin-4(5H)-yl)propyl)benzamide] | 13.7 µg/mL | >30 min |  | 
CC(C)CNC(=O)CCn1c(=O)c2ccccc2n2c(=S)[nH]nc12 [compound 32] | 30.8 µg/mL |  |  | 
CN(C)c1ccc2c(c1)c(=O)n(CCc1ccccc1)c1n[nH]c(=S)n21 [Cmpd 45] |  |  | 356 ×10⁻⁶ cm/s | 
4-(3-aminopropyl)-9-fluoro-1-thioxo-2,4-dihydro-[1,2,4]triazolo[4,3-a]quinazolin-5(1H)-one [compound 69] |  | >30 min |  | 
CC(C)(C)OC(=O)CC[C@H](NC(=O)OC(C)(C)C)C(=O)NCCCn1c(=O)c2cc(F)ccc2n2c(=S)[nH]nc12 [Cmpd 103] |  |  | 744 ×10⁻⁶ cm/s | 
O=C(Cc1cccc(C(F)(F)F)c1)NCCCn1c(=O)c2cc(F)ccc2n2c(=S)[nH]nc12 [compound 132, N-(3-(7-fluoro-5-oxo-1-thioxo-1,2-dihydro-[1,2,4]triazolo[4,3-a]quinazolin-4(5H)-yl)propyl)-2-(3-(trifluoromethyl)phenyl)acetamide] | 26.8 µg/mL | 17.3 min |  | 
O=c1c2ccccc2n2c(=O)[nH]nc2n1CCc1ccccc1 [compound 15] | <1 µg/mL |  |  | 
O=c1c2cc(F)ccc2n2c(=S)[nH]nc2n1CCc1cccnc1 [Cmpd 84] |  |  | <1 ×10⁻⁶ cm/s | 
O=c1c2cc(F)ccc2n2c(=S)[nH]nc2n1CCCc1ccccc1 [compound 53] | <1 µg/mL | 8.8 min |  | 
O=C(Cc1ccc(F)cc1)NCCCn1c(=O)c2cc(F)ccc2n2c(=S)[nH]nc12 [compound 123, N-(3-(7-fluoro-5-oxo-1-thioxo-1,2-dihydro-[1,2,4]triazolo[4,3-a]quinazolin-4(5H)-yl)propyl)-2-(4-fluorophenyl)acetamide] |  | 26.3 min |  | 

Results, then the compound that gave them:

Solub. (Aqueous solubility) | t1/2 (min, RLM) [1] | PAMPA | Solub. (μg/ml) (Aqueous solubility) | Compound
>41 µg/mL | >30 min |  |  | NCCn1c(=O)c2cc(F)ccc2n2c(=S)[nH]nc12 [compound 67]
>60 µg/mL | >30 min |  |  | O=C(NCCCn1c(=O)c2cc(F)ccc2n2c(=S)[nH]nc12)C1CCNCC1 [compound 114]
<1 µg/mL |  | 8.0 ×10⁻⁶ cm/s |  | O=C(NCCCn1c(=O)c2cc(F)ccc2n2c(=S)[nH]nc12)C1CCOCC1 [compound 115]
38.8 µg/mL | >30 min |  |  | NC1CCC(C(=O)NCCCn2c(=O)c3cc(F)ccc3n3c(=S)[nH]nc23)CC1 (centres unmarked) [compound 111]
17.8 µg/mL | >30 min |  |  | CN1CCCC1CCn1c(=O)c2cc(F)ccc2n2c(=S)[nH]nc12 (centres unmarked) [compound 87]
>59 µg/mL | >30 min |  |  | CCOP(=O)(CCn1c(=O)c2cc(F)ccc2n2c(=S)[nH]nc12)OCC [compound 78]
>39 µg/mL | >30 min |  |  | CCn1c(=O)c2cc(F)ccc2n2c(=S)[nH]nc12 [compound 63]
36.1 µg/mL | >30 min |  |  | NCCOCCOCCOCCC(=O)NCCCn1c(=O)c2cc(F)ccc2n2c(=S)[nH]nc12 [compound 98]
3.0 µg/mL | 22.8 min |  |  | O=c1c2cc(F)ccc2n2c(=S)[nH]nc2n1CCc1ccccc1Cl [compound 81]
34 µg/mL | >30 min |  |  | CS(=O)(=O)NCCCn1c(=O)c2cc(F)ccc2n2c(=S)[nH]nc12 [compound 76]
31.8 µg/mL | >30 min |  |  | NCCCCCC(=O)NCCCn1c(=O)c2cc(F)ccc2n2c(=S)[nH]nc12 [compound 100]
>60 µg/mL | >30 min |  |  | O=C(NCCCn1c(=O)c2cc(F)ccc2n2c(=S)[nH]nc12)C1CCCCN1 (centres unmarked) [compound 112]
37.5 µg/mL | >30 min |  |  | O=C(CC1CCNCC1)NCCCn1c(=O)c2cc(F)ccc2n2c(=S)[nH]nc12 [compound 116]
29.6 µg/mL | >30 min |  |  | O=C(NCCCn1c(=O)c2cc(F)ccc2n2c(=S)[nH]nc12)C1CCCNC1 (centres unmarked) [compound 113]
>54 µg/mL | >30 min |  |  | CN1CCN(CCn2c(=O)c3cc(F)ccc3n3c(=S)[nH]nc23)CC1 [compound 91]
8.6 µg/mL |  |  |  | CC(C)OCCCn1c(=O)c2cc(Cl)ccc2n2c(=S)[nH]nc12 [compound 56]
8.1 µg/mL |  |  |  | CC(C)NC(=O)CCn1c(=O)c2cc(Cl)ccc2n2c(=S)[nH]nc12 [compound 57]
20.4 µg/mL | 25.1 min |  |  | CC(C)(C)OC(=O)CC[C@@H](NC(=O)OC(C)(C)C)C(=O)NCCCn1c(=O)c2cc(F)ccc2n2c(=S)[nH]nc12 [compound 102]
20.5 µg/mL | 26.3 min |  |  | CC(C)(C)OC(=O)N1CCN(CCn2c(=O)c3cc(F)ccc3n3c(=S)[nH]nc23)CC1 [compound 92]
1.1 µg/mL | >30 min |  |  | CC(C)(C)[C@H]1CC[C@H](C(=O)NCCCn2c(=O)c3cc(F)ccc3n3c(=S)[nH]nc23)CC1 [compound 109]
>51 µg/mL |  |  |  | O=c1c2cc(F)ccc2n2c(=S)[nH]nc2n1CCP(=O)(O)O [compound 77]
>47 µg/mL | >30 min |  |  | CC(=O)NCCn1c(=O)c2cc(F)ccc2n2c(=S)[nH]nc12 [compound 72]

Source: US20230365568A1, “PLK1 POLO BOX DOMAIN INHIBITORS AND METHOD OF TREATING CANCER” (The United States of America,as represented by the …, priority 2020, published 2023)
